Measurements published in PubChem BioAssay AID248 (DTP/NCI, 2004).
“And” between values parts separate entries of the source, which are not always exact repeats. Identical values can stand only once. Inconclusive results and toxic doses are left out. No stated cut-off is given here; in the data, active means T/C of 150% or more; inactive means T/C below 125%.

Tested on: L1210 leukemia ip in BDF1 mice, survival T/C
Experiment: NCI In Vivo Anticancer Drug Screen. Data for tumor model L1210 Leukemia (intraperitoneal) in B6D2F1 (BDF1) mice
Settings: higher = longer survival
Summary of the method: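 Read-out is survival time, reported as the treated-group measurement over the vehicle-control measurement.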

[1] = endpoint: mean survival time, dose: 100.0 mg/kg/injection, schedule: Q04DX003 (ip), vehicle: saline with Tween-80
[2] = endpoint: mean survival time, dose: 200.0 mg/kg/injection, schedule: Q04DX003 (ip), vehicle: saline with Tween-80
[3] = endpoint: mean survival time, dose: 400.0 mg/kg/injection, schedule: Q04DX002 (ip), vehicle: saline with Tween-80
[4] = endpoint: mean survival time, dose: 400.0 mg/kg/injection, schedule: Q04DX003 (ip), vehicle: saline with Tween-80
[5] = endpoint: mean survival time, dose: 100.0 mg/kg/injection, schedule: Q01DX001 (ip), vehicle: saline
[6] = endpoint: mean survival time, dose: 200.0 mg/kg/injection, schedule: Q01DX001 (ip), vehicle: saline
[7] = endpoint: mean survival time, dose: 400.0 mg/kg/injection, schedule: Q01DX001 (ip), vehicle: saline
[8] = endpoint: mean survival time, dose: 100.0 mg/kg/injection, schedule: Q01DX001 (ip), vehicle: saline with Tween-80
[9] = endpoint: mean survival time, dose: 100.0 mg/kg/injection, schedule: Q01DX009 (ip), vehicle: saline with Tween-80
[10] = endpoint: mean survival time, dose: 100.0 mg/kg/injection, schedule: Q04DX002 (ip), vehicle: saline with Tween-80
[11] = endpoint: mean survival time, dose: 200.0 mg/kg/injection, schedule: Q01DX001 (ip), vehicle: saline with Tween-80
[12] = endpoint: mean survival time, dose: 200.0 mg/kg/injection, schedule: Q01DX009 (ip), vehicle: saline with Tween-80
[13] = endpoint: mean survival time, dose: 200.0 mg/kg/injection, schedule: Q04DX002 (ip), vehicle: saline with Tween-80
[14] = endpoint: mean survival time, dose: 400.0 mg/kg/injection, schedule: Q01DX009 (ip), vehicle: saline with Tween-80
[15] = endpoint: mean survival time, dose: 100.0 mg/kg/injection, schedule: Q01DX009 (ip), vehicle: saline
[16] = endpoint: mean survival time, dose: 200.0 mg/kg/injection, schedule: Q01DX009 (ip), vehicle: saline

Measured: T/C

CCOC(=O)C(C(C)=O)C(c1ccc(N(C)C)cc1)C(C(C)=O)C(=O)OCC (stereo unspecified)
inactive: endpoint: mean survival time, dose: 25.6 mg/kg/injection, schedule: Q04DX002 (ip), vehicle: saline with Tween-80 97 % of control | endpoint: mean survival time, dose: 64.0 mg/kg/injection, schedule: Q04DX002 (ip), vehicle: saline with Tween-80 93 % of control | [1] 89 % of control | endpoint: mean survival time, dose: 160.0 mg/kg/injection, schedule: Q04DX002 (ip), vehicle: saline with Tween-80 93 % of control | [2] 92 % of control | [3] 89 % of control | [4] 95 % of control

CC(O)C(O)C(O)CO (stereo unspecified)
inactive: [5] 96 % of control | [6] 111 % of control | [7] 94 % of control

O=C(NC(=S)Nc1cccc(F)c1)c1cccc([N+](=O)[O-])c1
inactive: [8] 98 % of control | [9] 94 % of control and 95 % of control | [10] 101 % of control and 111 % of control | [1] 98 % of control | [11] 93 % of control | [12] 98 % of control and 90 % of control | [13] 92 % of control and 96 % of control | [2] 102 % of control | [14] 92 % of control and 94 % of control | [3] 101 % of control and 103 % of control | [4] 101 % of control

O=S(=O)(O)C(Nc1ccccc1)c1ccccc1 (stereo unspecified)
inactive: [9] 100 % of control | [1] 97 % of control | endpoint: mean survival time, dose: 150.0 mg/kg/injection, schedule: Q01DX001 (ip), vehicle: water 96 % of control | endpoint: mean survival time, dose: 162.0 mg/kg/injection, schedule: Q01DX Z (ip), vehicle: carboxymethylcellulose (CMC) 95 % of control | [12] 96 % of control | [2] 101 % of control | endpoint: mean survival time, dose: 300.0 mg/kg/injection, schedule: Q01DX001 (ip), vehicle: water 100 % of control | endpoint: mean survival time, dose: 324.0 mg/kg/injection, schedule: Q01DX Z (ip), vehicle: carboxymethylcellulose (CMC) 94 % of control | [14] 101 % of control | endpoint: mean survival time, dose: 400.0 mg/kg/injection, schedule: Q01DX015 (ip), vehicle: water 119 % of control | [4] 93 % of control | endpoint: mean survival time, dose: 600.0 mg/kg/injection, schedule: Q01DX001 (ip), vehicle: water 96 % of control | endpoint: mean survival time, dose: 600.0 mg/kg/injection, schedule: Q01DX015 (ip), vehicle: water 104 % of control | endpoint: mean survival time, dose: 1200.0 mg/kg/injection, schedule: Q01DX001 (ip), vehicle: water 116 % of control

CCOC(=O)N1C=Cn2c(cnc2C)C1O (stereo unspecified)
inactive: endpoint: mean survival time, dose: 50.0 mg/kg/injection, schedule: Q01DX009 (ip), vehicle: saline 94 % of control | [15] 94 % of control | endpoint: mean survival time, dose: 100.0 mg/kg/injection, schedule: Q01DX009 (ip), vehicle: water 102 % of control | endpoint: mean survival time, dose: 100.0 mg/kg/injection, schedule: Q04DX003 (ip), vehicle: saline 102 % of control | [16] 100 % of control and 91 % of control | endpoint: mean survival time, dose: 200.0 mg/kg/injection, schedule: Q01DX009 (ip), vehicle: water 90 % of control | endpoint: mean survival time, dose: 200.0 mg/kg/injection, schedule: Q04DX003 (ip), vehicle: saline 109 % of control | endpoint: mean survival time, dose: 400.0 mg/kg/injection, schedule: Q01DX009 (ip), vehicle: water 93 % of control | endpoint: mean survival time, dose: 400.0 mg/kg/injection, schedule: Q04DX003 (ip), vehicle: saline 107 % of control

CCOCCOCCOC(C)Oc1cccc(C(=O)OCC)c1 (stereo unspecified)
inactive: [10] 103 % of control | [13] 103 % of control | [3] 100 % of control

O=C(Nc1cccc2nsnc12)c1ccc(C(=O)Nc2cccc3nsnc23)cc1
inactive: endpoint: mean survival time, dose: 100.0 mg/kg/injection, schedule: Q01DX001 (ip), vehicle: other 94 % of control | endpoint: mean survival time, dose: 200.0 mg/kg/injection, schedule: Q01DX001 (ip), vehicle: other 88 % of control | endpoint: mean survival time, dose: 400.0 mg/kg/injection, schedule: Q01DX001 (ip), vehicle: other 98 % of control

O=C1OC(c2ccccc2)=C/C1=C\c1[nH]c(=S)[nH]c(=O)c1Cc1ccc(Cl)cc1
inactive: [8] 102 % of control | [11] 89 % of control | endpoint: mean survival time, dose: 400.0 mg/kg/injection, schedule: Q01DX001 (ip), vehicle: saline with Tween-80 90 % of control

COc1ccc(NC(=O)Oc2c(C(C)C)cccc2C(C)C)cc1
inactive: endpoint: mean survival time, dose: 100.0 mg/kg/injection, schedule: Q04DX003 (ip), vehicle: Klucel (hydroxypropylcellulose) (HPC) 100 % of control | endpoint: mean survival time, dose: 200.0 mg/kg/injection, schedule: Q04DX003 (ip), vehicle: Klucel (hydroxypropylcellulose) (HPC) 96 % of control | endpoint: mean survival time, dose: 400.0 mg/kg/injection, schedule: Q04DX003 (ip), vehicle: Klucel (hydroxypropylcellulose) (HPC) 92 % of control

O=C(Nc1cccc(F)c1)N(CCO)C1CCCCC1
inactive: [15] 105 % of control | [16] 113 % of control | endpoint: mean survival time, dose: 400.0 mg/kg/injection, schedule: Q01DX009 (ip), vehicle: saline 100 % of control

CCCCCCCCCCCCCCC(F)C(=O)OC (stereo unspecified)
inactive: endpoint: mean survival time, dose: 100.0 mg/kg/injection, schedule: Q01DX009 (sc), vehicle: olive oil, sesame oil, peanut oil 94 % of control | endpoint: mean survival time, dose: 100.0 mg/kg/injection, schedule: Q04DX003 (sc), vehicle: olive oil, sesame oil, peanut oil 102 % of control | endpoint: mean survival time, dose: 200.0 mg/kg/injection, schedule: Q04DX003 (sc), vehicle: olive oil, sesame oil, peanut oil 113 % of control | endpoint: mean survival time, dose: 400.0 mg/kg/injection, schedule: Q04DX003 (sc), vehicle: olive oil, sesame oil, peanut oil 109 % of control

C[C@]12CC[C@H](O)C[C@H]1CC[C@@H]1[C@@H]2CC[C@]2(C)[C@@H](C3=CC(=O)OC3)CC[C@]12O
inactive: endpoint: mean survival time, dose: 50.0 mg/kg/injection, schedule: Q01DX001 (ip), vehicle: carboxymethylcellulose (CMC) 101 % of control | endpoint: median survival time, dose: 2.0 mg/kg/injection, schedule: Q01DX005 (ip), vehicle: water 98 % of control | endpoint: median survival time, dose: 4.0 mg/kg/injection, schedule: Q01DX005 (ip), vehicle: water 98 % of control | endpoint: median survival time, dose: 8.0 mg/kg/injection, schedule: Q01DX005 (ip), vehicle: water 103 % of control

CN1C(=O)C(Br)=C(Br)C1(O)c1cccnc1 (stereo unspecified)
inactive: endpoint: mean survival time, dose: 50.0 mg/kg/injection, schedule: Q01DX001 (ip), vehicle: saline 104 % of control | [5] 104 % of control | [6] 95 % of control | [7] 98 % of control

CC1CCC2C(C)C3C(CC4C5CC=C6CC(OC7OC(CO)C(O)C(OC8OC(CO)C(O)C(O)C8O)C7OC7OC(C)C(O)C(O)C7O)CCC6(C)C5CCC43C)N2C1 (stereo unspecified)
inactive: endpoint: mean survival time, dose: 12.5 mg/kg/injection, schedule: Q01DX015 (sc), vehicle: steriod suspending solution 101 % of control | endpoint: mean survival time, dose: 25.0 mg/kg/injection, schedule: Q01DX015 (sc), vehicle: steriod suspending solution 98 % of control | endpoint: mean survival time, dose: 50.0 mg/kg/injection, schedule: Q01DX015 (sc), vehicle: steriod suspending solution 95 % of control | endpoint: mean survival time, dose: 100.0 mg/kg/injection, schedule: Q01DX001 (sc), vehicle: steriod suspending solution 100 % of control | endpoint: mean survival time, dose: 100.0 mg/kg/injection, schedule: Q01DX015 (sc), vehicle: steriod suspending solution 101 % of control | endpoint: mean survival time, dose: 200.0 mg/kg/injection, schedule: Q01DX001 (sc), vehicle: steriod suspending solution 105 % of control | endpoint: mean survival time, dose: 400.0 mg/kg/injection, schedule: Q01DX001 (sc), vehicle: steriod suspending solution 103 % of control

CC1(C)OC2C3COc4nc5c(N)ncnc5n4C(O3)C2O1 (stereo unspecified)
inactive: endpoint: mean survival time, dose: 100.0 mg/kg/injection, schedule: Q01DX001 (ip), vehicle: steriod suspending solution 112 % of control | endpoint: mean survival time, dose: 200.0 mg/kg/injection, schedule: Q01DX001 (ip), vehicle: steriod suspending solution 101 % of control | endpoint: mean survival time, dose: 400.0 mg/kg/injection, schedule: Q01DX001 (ip), vehicle: steriod suspending solution 98 % of control
